For 30 molecules, TGI and GI50 results are on record in PubChem BioAssay (NCI).

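In this assay, cells in 96-well plates receive the compound at five concentrations for 48 hours. Endpoints are linearly interpolated between the surrounding concentrations. Abbreviation: GI50, concentration required for 50% inhibition of growth. TGI: total growth inhibition.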

Among the test systems are EKVX NSCLC; IGROV1 ovarian; LOX IMVI melanoma.
What all share (experiment): inhibition of tumour cell growth, NCI panel, 48 h

Turning to `O=C(Nc1ccc(S(=O)(=O)Nc2ncccn2)cc1)c1c2ccccc2nc2ccccc12`, the TGI in the assay with EKVX NSCLC, in the assay on IGROV1 ovarian and in the assay on LOX IMVI melanoma was greater than 100 µM throughout.

Regarding `COC(=O)CCC(C)[C@H]1CCC2C3C(C[C@H](OC(C)=O)[C@@]21C)[C@@]1(C)CCC2(C[C@H]1C[C@H]3OC(C)=O)OOC1(CCCCC1)OO2` (some centres not stated), the TGI with EKVX NSCLC was 18.8 µM; with IGROV1 ovarian, 20.8 µM; with LOX IMVI melanoma, greater than 100 µM.

Take `CC1=C(C)C(=O)C(C2=C(C3=CC(=O)C(C)=C(C)C3=O)C(=O)c3ccccc3C2=O)=CC1=O`: the TGI was 5.81 µM with EKVX NSCLC, 7.14 µM with IGROV1 ovarian and 5.94 µM in the assay with LOX IMVI melanoma.

For the molecule `CCCCCCC(=O)OC[n+]1cccc(-c2c(COC(=O)NC(C)C)c(COC(=O)NC(C)C)c3n2CCC3)c1`, the results for the TGI in the assay on EKVX NSCLC, in the assay with IGROV1 ovarian and with LOX IMVI melanoma were greater than 100 µM, greater than 86.6 µM and 69 µM, respectively.

With `O=C1c2c(ccc3c2CCCC3)CC1Cc1ccc2c(c1)CCCC2` (configuration not stated), the TGI in the assay on EKVX NSCLC, in the assay with IGROV1 ovarian and with LOX IMVI melanoma was greater than 100 µM throughout.

With `COc1ccc(N2C(=O)C3c4[nH]c5ccc(OCc6ccccc6)cc5c4C4CCC(C(C)C)CC4C3C2=O)cc1` (configuration not stated), the TGI was greater than 100 µM in the assay on EKVX NSCLC, greater than 80.6 µM with IGROV1 ovarian and greater than 100 µM in the assay with LOX IMVI melanoma.

As to `COc1ccccc1Cn1[nH]c(=O)c2cc([N+](=O)[O-])ccc21`, the TGI with EKVX NSCLC, in the assay on IGROV1 ovarian and with LOX IMVI melanoma was greater than 100 µM each time.

As to `CC(C)(C)N=c1n(C(C)(C)C)oc(=O)n1-c1ccccc1`, the TGI in the assay on EKVX NSCLC, in the assay on IGROV1 ovarian and in the assay on LOX IMVI melanoma was greater than 50 µM in each case.

Take `CC1(C)CC2(C)ON=C(c3ccccc3)N2c2ccccc2N1` (configuration not stated): the TGI in the assay with EKVX NSCLC was 77 µM; with IGROV1 ovarian, greater than 100 µM; in the assay on LOX IMVI melanoma, 33.8 µM.

As for `c1ccc(CSC(SCc2ccccc2)c2ccc3c(c2)OCO3)cc1`, the TGI in the assay on EKVX NSCLC, in the assay with IGROV1 ovarian and in the assay with LOX IMVI melanoma was greater than 10 µM each time.

Turning to `O=c1oc2c(ccc3c(O)cccc32)c2c1CCCC2`, the TGI with EKVX NSCLC, with IGROV1 ovarian and with LOX IMVI melanoma was greater than 100 µM in each case.

As for `COc1nc(C)nc2c1ncn2Cc1ccccc1`, the TGI in the assay with EKVX NSCLC, in the assay with IGROV1 ovarian and with LOX IMVI melanoma was greater than 100 µM in each case.

Take `Cc1ncc(CO)c(C=NCCCCCCN=Cc2c(CO)cnc(C)c2O)c1O`: the TGI in the assay with EKVX NSCLC, with IGROV1 ovarian and in the assay on LOX IMVI melanoma was greater than 100 µM throughout.

For `Cc1ccc(Nc2cn(COCc3ccccc3)c(=O)[nH]c2=O)cc1`, the TGI in the assay with EKVX NSCLC, with IGROV1 ovarian and in the assay on LOX IMVI melanoma was greater than 100 µM each time.

As for `COC(=O)CCC1(O)C=CC(=O)C=C1`, the TGI in the assay on EKVX NSCLC, in the assay with IGROV1 ovarian and in the assay with LOX IMVI melanoma was greater than 100 µM in each case.

In the case of `COc1cccc(C(=O)N[C@@H]2[C@H](O)[C@@H](CO)O[C@H]2n2cnc3c(N)ncnc32)c1`, the TGI in the assay on EKVX NSCLC, in the assay with IGROV1 ovarian and in the assay on LOX IMVI melanoma was greater than 100 µM each time.

On to `Cc1[nH]c2ccccc2c1C1=CC(=O)N(c2ccccc2)C1=O`, for which the figures for the TGI with EKVX NSCLC, with IGROV1 ovarian and with LOX IMVI melanoma were 83.9 µM, greater than 100 µM and 18.3 µM, respectively.

`Cn1c(=O)sc2cc(C(=S)N3CCN(c4ccccc4)CC3)ccc21`: the TGI in the assay with EKVX NSCLC, in the assay on IGROV1 ovarian and in the assay with LOX IMVI melanoma was greater than 100 µM in each case.

For the molecule `CCOC(=O)c1ccc(Nc2cnc3ccc(C(F)(F)F)cc3n2)cc1`, the TGI in the assay on EKVX NSCLC is 58.4 µM; in the assay on IGROV1 ovarian it was 30.4 µM; in the assay with LOX IMVI melanoma, 29.3 µM.

Regarding `OC1(c2ccc3ccccc3c2)c2c(c3ccccc3c3ccccc23)C2=NCCN21` (configuration not stated), the TGI in the assay with EKVX NSCLC is 36.3 µM; with IGROV1 ovarian, 24 µM; in the assay with LOX IMVI melanoma, 5.41 µM.

With `c1cc(C[S+]2CCCC2)oc1C[S+]1CCCC1`, the TGI in the assay on EKVX NSCLC, in the assay with IGROV1 ovarian and in the assay with LOX IMVI melanoma was greater than 100 µM throughout.

On to `O=C(O)CCc1nc2cc3ccccc3cc2[nH]c1=O`, for which the TGI in the assay on EKVX NSCLC, with IGROV1 ovarian and with LOX IMVI melanoma was greater than 100 µM in each case.

In the assay on EKVX NSCLC, `Cn1nc(C(=O)N2CC(CCl)c3c2cc([N+](=O)[O-])c2ccccc32)cc1NC(=O)Nc1cc(C(=O)N2CC(CCl)c3c2cc([N+](=O)[O-])c2ccccc32)nn1C` (configuration not stated) gave a TGI greater than 100 µM.

As to `CN1CCCC(C(=O)OCC(=O)C2(O)CCC3C4CCC5=CC(=O)CCC5(C)C4C(O)CC32C)C1` (configuration not stated), the TGI is 67.1 µM in the assay on EKVX NSCLC, greater than 60.1 µM with IGROV1 ovarian and 30.6 µM in the assay on LOX IMVI melanoma.

Regarding `COC(=O)C1(C)OC(C)=NC1(C(=O)OC)C(=O)OC` (configuration not stated), the TGI in the assay with EKVX NSCLC, in the assay with IGROV1 ovarian and in the assay with LOX IMVI melanoma was greater than 100 µM throughout.

Consider `Cc1cc(-c2ccc(C(=O)C(c3ccccc3)(c3ccccc3)c3ccccc3)[nH]2)on1`, for which the TGI in the assay on EKVX NSCLC was found to be 39.9 µM; in the assay with IGROV1 ovarian it was 73.9 µM; in the assay on LOX IMVI melanoma, 53.3 µM.

For the molecule `CCN1C(=O)CS/C1=N\NC(=O)CSc1nc2ccccc2c(=O)n1CC`, the TGI in the assay on EKVX NSCLC, with IGROV1 ovarian and with LOX IMVI melanoma was greater than 100 µM throughout.

In the case of `CCOC(=O)NC(=S)NC(C)c1ccccc1` (configuration not stated), the TGI in the assay on EKVX NSCLC and in the assay on IGROV1 ovarian was greater than 100 µM throughout.

Regarding `COc1cc2c(cc1OCCCCN1CCN(CCCCOc3cc4c(cc3OC)C(=O)N3CCC[C@H]3C=N4)CC1)N=C[C@@H]1CCCN1C2=O`, the TGI in the assay with EKVX NSCLC was 7.85 µM; in the assay with LOX IMVI melanoma, greater than 100 µM. In the assay with LOX IMVI melanoma, the GI50 was 0.0267 µM.

Consider `CCc1n[nH]c(=S)n1/N=C\c1ccc(-c2ccccc2[N+](=O)[O-])o1`, for which the TGI in the assay with EKVX NSCLC, with IGROV1 ovarian and in the assay on LOX IMVI melanoma was greater than 100 µM in each case.
